# Several values for one entry are separate records, joined by “and”; a condition that tells them apart may be missing. Identical values can stand only once. Toxic doses and inconclusive results are not listed.
# Tested on: P388 leukemia ip, CD2F1 mice, survival T/C
# Test: NCI In Vivo Anticancer Drug Screen. Data for tumor model P388 Leukemia (intraperitoneal) in CD2F1 (CDF1) mice
# Conditions: endpoint: median survival time, higher = longer survival
# Method in brief: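 Mice carrying the transplanted tumor received test compound or vehicle. Survival was recorded in each group, and the value is the treated-group measurement divided by that of the vehicle-treated control group.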
# [1] = dose: 100.0 mg/kg/injection, schedule: Q01DX001 (ip), vehicle: saline
# [2] = dose: 200.0 mg/kg/injection, schedule: Q01DX001 (ip), vehicle: saline
# [3] = dose: 400.0 mg/kg/injection, schedule: Q01DX001 (ip), vehicle: saline
# [4] = dose: 50.0 mg/kg/injection, schedule: Q01DX009 (ip), vehicle: saline with Tween-80
# [5] = dose: 100.0 mg/kg/injection, schedule: Q01DX009 (ip), vehicle: saline with Tween-80
# [6] = dose: 200.0 mg/kg/injection, schedule: Q01DX009 (ip), vehicle: saline with Tween-80
# [7] = dose: 50.0 mg/kg/injection, schedule: Q01DX009 (ip), vehicle: saline
# [8] = dose: 100.0 mg/kg/injection, schedule: Q01DX009 (ip), vehicle: saline
# [9] = dose: 200.0 mg/kg/injection, schedule: Q01DX009 (ip), vehicle: saline
# [10] = dose: 12.5 mg/kg/injection, schedule: Q01DX009 (ip), vehicle: saline
# [11] = dose: 60.0 mg/kg/injection, schedule: Q01DX005 (ip), vehicle: saline with Tween-80
# [12] = dose: 120.0 mg/kg/injection, schedule: Q01DX005 (ip), vehicle: saline with Tween-80
# [13] = dose: 240.0 mg/kg/injection, schedule: Q01DX005 (ip), vehicle: saline with Tween-80
# [14] = dose: 50.0 mg/kg/injection, schedule: Q01DX005 (ip), vehicle: saline with Tween-80
# [15] = dose: 100.0 mg/kg/injection, schedule: Q01DX005 (ip), vehicle: saline with Tween-80
# [16] = dose: 200.0 mg/kg/injection, schedule: Q01DX005 (ip), vehicle: saline with Tween-80
# [17] = dose: 100.0 mg/kg/injection, schedule: Q04DX002 (ip), vehicle: Klucel (hydroxypropylcellulose) (HPC)
# [18] = dose: 200.0 mg/kg/injection, schedule: Q04DX002 (ip), vehicle: Klucel (hydroxypropylcellulose) (HPC)
# [19] = dose: 400.0 mg/kg/injection, schedule: Q04DX002 (ip), vehicle: Klucel (hydroxypropylcellulose) (HPC)
# [20] = dose: 50.0 mg/kg/injection, schedule: Q01DX005 (ip), vehicle: Klucel (hydroxypropylcellulose) (HPC)
compound,measurement,setting,value
N#CC(N)(C#N)C(N)=O,T/C,[1],101 % of control
same,T/C,[2],101 % of control
same,T/C,[3],103 % of control
COc1ccc(C2(C)C=C(C)C=C(C)C2=O)cc1 (stereo not given),T/C,[4],100 % of control
same,T/C,[5],106 % of control
same,T/C,[6],100 % of control
CCC(=O)N(C)C(C)C(=O)OC1CC(=O)N(C)c2cc(cc(OC)c2Cl)CC2(C)OC2/C=C/C(OC)C2(O)CC(OC(=O)N2)C(C)C2OC12C (stereo not given),T/C,"dose: 25.0 micrograms/kg/injection, schedule: Q01DX009 (ip), vehicle: saline + alcohol",124 % of control
same,T/C,"dose: 50.0 micrograms/kg/injection, schedule: Q01DX009 (ip), vehicle: saline + alcohol",120 % of control and 124 % of control
same,T/C,"dose: 100.0 micrograms/kg/injection, schedule: Q01DX009 (ip), vehicle: saline + alcohol",124 % of control
same,T/C,"dose: 800.0 micrograms/kg/injection, schedule: Q01DX009 (ip), vehicle: saline + alcohol",152 % of control
NC(CC(=O)O)P(=O)(O)O (stereo not given),T/C,[7],93 % of control
same,T/C,[8],98 % of control
same,T/C,[9],107 % of control
N#Cc1c(=O)n(CCO)nc2c3ccccc3c3ccccc3c12,T/C,"dose: 100.0 mg/kg/injection, schedule: Q04DX002 (ip), vehicle: saline with Tween-80",97 % of control
same,T/C,"dose: 200.0 mg/kg/injection, schedule: Q04DX002 (ip), vehicle: saline with Tween-80",88 % of control
COC(=O)C1c2cc3c(c(O)c2C(OC2OC(C)C(OC)C(C)(OC)C2OC)CC1(C)O)C(=O)c1c(O)cc2c(c1C3=O)OC1OC2(C)C(OC(C)=O)C(N(C)C)C1OC(C)=O (stereo not given),T/C,"dose: 3.12 mg/kg/injection, schedule: Q04DX003 (ip), vehicle: other",87 % of control
same,T/C,"dose: 6.25 mg/kg/injection, schedule: Q04DX003 (ip), vehicle: other",103 % of control
CCCCCCCC[N+]1(CC)CCCC1,T/C,"dose: 3.12 mg/kg/injection, schedule: Q01DX009 (ip), vehicle: saline",95 % of control
same,T/C,"dose: 6.25 mg/kg/injection, schedule: Q01DX009 (ip), vehicle: saline",95 % of control
same,T/C,[10],96 % of control
c1ccc(C(=C2C(=C(c3ccccc3)c3ccccc3)c3nc4ccccc4nc32)c2ccccc2)cc1,T/C,"dose: 7.5 mg/kg/injection, schedule: Q01DX005 (ip), vehicle: saline with Tween-80",90 % of control
same,T/C,"dose: 15.0 mg/kg/injection, schedule: Q01DX005 (ip), vehicle: saline with Tween-80",88 % of control
same,T/C,[11],86 % of control
same,T/C,[12],87 % of control
same,T/C,[13],90 % of control
CCNC(=S)N=Nc1c(O)[nH]c2ccccc12,T/C,[10],90 % of control
same,T/C,"dose: 25.0 mg/kg/injection, schedule: Q01DX009 (ip), vehicle: saline",89 % of control
same,T/C,[7],88 % of control and 89 % of control
CCOC(=O)C1CCc2ccccc2N1 (stereo not given),T/C,[14],99 % of control
same,T/C,[15],103 % of control
same,T/C,[16],104 % of control
CC1CN1CCS(=O)(=O)CCN1CC1C (stereo not given),T/C,[4],95 % of control
same,T/C,[5],104 % of control
Cc1ccc(S(=O)(=O)N/N=C2\C(=N\NS(=O)(=O)c3ccc(C)cc3)C3c4ccccc4C2c2ccccc23)cc1,T/C,[11],105 % of control
same,T/C,[12],96 % of control
same,T/C,[13],95 % of control
CCN(CC)CCNc1ccc(N)c2sc3ccccc3c(=O)c12,T/C,[4],103 % of control and 107 % of control and 119 % of control
same,T/C,[5],115 % of control and 120 % of control and 122 % of control
same,T/C,[6],96 % of control
Cc1ccc(/C2=C(\c3ccc(C)cc3)N(c3ccccc3)CCCCN2c2ccccc2)cc1,T/C,[17],99 % of control
same,T/C,[18],99 % of control
same,T/C,[19],99 % of control
Nc1ccc(OCCNC(=O)c2ccc(S(=O)(=O)F)cc2)c(Cl)c1,T/C,"dose: 100.0 mg/kg/injection, schedule: Q01DX001 (ip), vehicle: saline with Tween-80",90 % of control
same,T/C,"dose: 200.0 mg/kg/injection, schedule: Q01DX001 (ip), vehicle: saline with Tween-80",100 % of control
same,T/C,"dose: 400.0 mg/kg/injection, schedule: Q01DX001 (ip), vehicle: saline with Tween-80",104 % of control
O=C(NCCS(=O)(=O)O)C1CCCN1 (stereo not given),T/C,"dose: 60.0 mg/kg/injection, schedule: Q01DX005 (ip), vehicle: saline",100 % of control
same,T/C,"dose: 120.0 mg/kg/injection, schedule: Q01DX005 (ip), vehicle: saline",100 % of control
same,T/C,"dose: 240.0 mg/kg/injection, schedule: Q01DX005 (ip), vehicle: saline",99 % of control
CCCCCCCCCCCC[S+](C)CCCCCCCC (stereo not given),T/C,"dose: 0.78 mg/kg/injection, schedule: Q01DX005 (ip), vehicle: saline with Tween-80",111 % of control and 117 % of control
same,T/C,"dose: 1.56 mg/kg/injection, schedule: Q01DX005 (ip), vehicle: saline with Tween-80",122 % of control
same,T/C,"dose: 3.13 mg/kg/injection, schedule: Q01DX005 (ip), vehicle: saline with Tween-80",124 % of control
CCCCCCCCN(/N=C/c1c2c(O)c3c(O)c(C)c4c(c3c1O)C(=O)C(C)(O/C=C/C(OC)C(C)C(OC(C)=O)C(C)C(O)C(C)C(O)C(C)/C=C/C=C(C)C(=O)N2)O4)C1OC(COC(=O)c2ccccc2)C(OC(=O)c2ccccc2)C1OC(=O)c1ccccc1 (stereo not given),T/C,[4],102 % of control
same,T/C,[5],102 % of control
same,T/C,[6],107 % of control
CN1N=Nc2ccccc2NC1=O,T/C,[14],96 % of control
same,T/C,[15],99 % of control
same,T/C,[16],91 % of control
Cc1ccccc1CC1c2[nH]c3ccccc3c2CCN1C (stereo not given),T/C,[11],109 % of control
same,T/C,[12],109 % of control
CCOC(=O)c1csc(-c2ccc(COC(=O)c3ccccc3)o2)n1,T/C,[14],100 % of control
same,T/C,[15],96 % of control
same,T/C,[16],89 % of control
Nc1nc(N)nc(Cc2ccccc2)n1,T/C,[4],104 % of control
same,T/C,[5],93 % of control
same,T/C,[6],95 % of control
COC(=O)CC1(C(=O)OC)c2ccc3ccccc3c2N(C#N)C1CCCBr (stereo not given),T/C,[1],109 % of control
same,T/C,[2],107 % of control
same,T/C,[3],100 % of control
CCC1C2Cc3ccc(O)cc3C1(C)CCN2C (stereo not given),T/C,"dose: 12.5 mg/kg/injection, schedule: Q01DX005 (ip), vehicle: Klucel (hydroxypropylcellulose) (HPC)",100 % of control
same,T/C,"dose: 25.0 mg/kg/injection, schedule: Q01DX005 (ip), vehicle: Klucel (hydroxypropylcellulose) (HPC)",99 % of control
same,T/C,[20],102 % of control and 107 % of control
O=C(CCOCCCOCCC(=O)OCCCBr)OCCCBr,T/C,[20],102 % of control
same,T/C,"dose: 100.0 mg/kg/injection, schedule: Q01DX005 (ip), vehicle: Klucel (hydroxypropylcellulose) (HPC)",98 % of control
same,T/C,"dose: 200.0 mg/kg/injection, schedule: Q01DX005 (ip), vehicle: Klucel (hydroxypropylcellulose) (HPC)",98 % of control
O=[N+]([O-])c1cccc(SNSc2cccc([N+](=O)[O-])c2)c1,T/C,[17],90 % of control
same,T/C,[18],88 % of control
same,T/C,[19],94 % of control
Cc1nccc2nnc(C)n12,T/C,"dose: 100.0 mg/kg/injection, schedule: Q04DX003 (ip), vehicle: saline",98 % of control
same,T/C,"dose: 200.0 mg/kg/injection, schedule: Q04DX003 (ip), vehicle: saline",98 % of control
same,T/C,"dose: 400.0 mg/kg/injection, schedule: Q04DX003 (ip), vehicle: saline",95 % of control
COc1cc2c(cc1[N+](=O)[O-])C(=O)C(Br)(Br)CCC2,T/C,"dose: 50.0 mg/kg/injection, schedule: Q01DX009 (ip), vehicle: Klucel (hydroxypropylcellulose) (HPC)",116 % of control
same,T/C,"dose: 100.0 mg/kg/injection, schedule: Q01DX009 (ip), vehicle: Klucel (hydroxypropylcellulose) (HPC)",119 % of control
O=C([O-])[O-].O=S(=O)(O)O.[Co+3].[NH-]CC[NH-].[NH-]CC[NH-],T/C,[7],90 % of control
same,T/C,[8],93 % of control
same,T/C,[9],94 % of control

# Reference: PubChem BioAssay AID330 (DTP/NCI, 2004)
